Results on one molecule are retold here after patent US20240325424A1, “Pharmaceutical Compositions And Methods For Treating Neoplasia” (priority 2021, published 2024).

The subject of one assay is a virus. As to conditions: virus of Chan et al., 2013, p. 612; cited from earlier work.
A further assay has as its system RSV. The assay is described as follows: antiviral test RSV. The format is cell-based. As to conditions: human respiratory syncytial virus.
Assay [1] relates to pandemic flu H1/415, A/Hong Kong/415742/2009, A(H1N1)pdm09. The settings on record: To et al. (2016); cited from earlier work.
A further assay deals with Influenza A H1N1. The assay is described as follows: antiviral test Influenza A H1N1. It counts as cell-based. The settings on record: Influenza A virus.
Assay [2] relates to avian-origin influenza A (H7N9). As to conditions: cited from earlier work.
Assay [3] has as its system seasonal influenza A(H3N2) virus. The settings on record: To et al. (2016); cited from earlier work.
Another assay deals with Norovirus. Description: Norovirus test. It counts as cell-based.

In brackets after ≈: the same amount, converted by molar mass.

Turning to `COc1c(C)c2c(c(O)c1C/C=C(\C)CCC(=O)O)C(=O)OC2` [mycophenolic acid, 6-(4-hydroxy-6-methoxy-7-methyl-3-oxo-1,3-dihydroisobenzofuran-5-yl)-4-methyl-hex-4-enoic acid], the EC50 (in general, the concentration that produces a half-maximal response) in the assay on a virus is 0.17 µg/mL (≈ 0.531 µM); with RSV, below 0.1 µg/mL; in the assay with Influenza A H1N1 it was below 0.1 µg/mL; with Norovirus, 0.151 µg/mL (≈ 0.471 µM). The effectiveness against virus entry in assay [1], in assay [2] and in assay [3] was “effective” throughout.
